Here are results for one sequence from patent publication US12589143B2, “Human anti-PD-L1 peptide vaccines and methods of their use” (priority 2019, dated 2026).

In this assay the test system is D2F2 WT tumor cells. Description: D2F2 WT tumor challenge in Balb/c mice. Format: in vivo. On the procedure:
Balb/c mice 6-8 weeks old, were immunized with G1 and G2 mice were treated with anti-PD-1 mAb (29F.1A12) (G1) or anti-PD-L1 mAb (10F.9G2) (G2 or with MVF-PD-L1 vaccine constructs [PD-L1(92-110)(G3) PD-L1(130-147)(G4)] prior to tumor challenge. Similarly, G10, G11 and G12 are control groups and were not treated prior to tumor cell challenge. G13, G14 and G15 mice were immunized with 100 ug MVF-HER-2(266-296)+100 ug MVF-HER-2(597-626)+ISA720 per mouse for G13, 100 ug MVF-PD-1 (92-110)+100 ug MVF-HER-2(266-296)+100 ug MVF-HER-2(597-626)+ISA720 per mouse for G14 and 100 ug MVF-PD-L1 (130-147)+100 ug MVF-HER-2(266-296)+100 ug MVF-HER-2(597-626)+ISA720 per mouse for G15. The mice were immunized up to 4 times before tumor challenge. […] All the mice had been monitored at least twice per week, and the tumors were measured with calipers as data indicated.
The tumor volumes were measured by calipers and calculated by formula: (length×width2)/2. […] All the peptides immunized groups of mice are shown with less tumor burden than PBS group and mAbs treated groups as well.
G0, G1 and G2 are control groups, mice in these groups were not treated before tumor cells challenge. Following challenge with D2F2 WT tumor cells, G0 mice were treated with PBS (i.p.) twice per week start from day 2 post challenge served as negative control, G1 and G2 mice were treated with anti-PD-1 mAb (29F.1A12) or anti-PD-L1 mAb (10F.9G2), respectively. Treatment for G1 and G2 mouse groups was also started from day 2 post tumor challenge, with 100 ug administered/mouse twice a week. G1 and G2 served as positive control. […] All the mice had been monitored at least twice per week, and the tumors were measured with calipers as data indicated (FIG. 26).
Mice were immunized with designed peptides vaccines as descripted in FIG. 26, which indicated as 1Y, 2Y, 3Y and 4Y here and with 3 weeks apart. […] And the mice were monitor at least twice per week, and the tumors were measured as shown in the data figures.
The tumor volumes were measured by calipers and calculated by formula: (length×width2)/2. […]

Where no end group is shown, it is not given here.

Consider “KLLSLIKGVIVHRLEGVEGPSLVTSEHELTCQAEGYPKAE (KLLSLIKGVIVHRLEGVEGPSLVTSEHELTCQAEGYPKAE-NH2) [PD-L1(130)]”, for which, where the note is “after day 45 of tumor challenge”, the mice survival result is recorded as “about 60%”. In addition, the tumor volume entry (day 21 and day 28) is “smaller tumor volume than PBS negative control group and both of mAbs positive control groups”.
